From patent US11931338B2, “Nitrilated psilocybin derivatives and methods of using” (Enveric Biosciences Canada Inc., priority 2020, dated 2024)

Tests used:
[1] = target: T1, 5-HT1A receptor (Homo sapiens, UniProt P08908); test: cAMP-Glo assay in CHO-K1/5-HT1A/Gα15 (+5-HT1A) and CHO-K1/Gα15 (−5-HT1A) cells; settings: for luminescence (cAMP) in +5HT1A cell culture at various compound concentrations: 5-HT1A activity: fixed (4 μM) forskolin, +5HT1A cells, FIG. 14B-14D; for relative cAMP levels with increasing compound concentration in +5HT1A and −5HT1A cells: constant (4 μM) forskolin, 5-HT1AR cells vs CHO-K1 cells, n=3, FIG. 14F, 14G
T1 sequence (P08908 1-422): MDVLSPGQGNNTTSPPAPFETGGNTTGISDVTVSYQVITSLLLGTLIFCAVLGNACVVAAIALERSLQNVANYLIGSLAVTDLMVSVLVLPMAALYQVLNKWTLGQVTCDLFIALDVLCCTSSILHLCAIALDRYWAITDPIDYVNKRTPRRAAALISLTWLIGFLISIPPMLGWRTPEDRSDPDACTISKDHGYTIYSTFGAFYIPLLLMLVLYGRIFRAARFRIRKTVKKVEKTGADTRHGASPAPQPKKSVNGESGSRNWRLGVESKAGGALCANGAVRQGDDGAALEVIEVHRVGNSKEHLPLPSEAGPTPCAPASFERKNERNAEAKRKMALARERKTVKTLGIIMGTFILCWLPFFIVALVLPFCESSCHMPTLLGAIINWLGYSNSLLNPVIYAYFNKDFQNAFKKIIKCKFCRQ
Source text: CHO-K1/Gα15 (GenScript, M00257) (−5-HT1A) and CHO-K1/5-HT1A/Gα15 (GenScript, M00330) (+5-HT1A) cells lines were used. Briefly, CHO-K1/Gα15 is a control cell line that constitutively expresses Gα15 which is a promiscuous Gq protein. This control cell line lacks any transgene encoding 5-HT1A receptors, but still respond to forskolin; thus, cAMP response to forskolin should be the same regardless of whether or not 5-HT1A agonists are present. Conversely, CHO-K1/5-HT1A/Gα15 cells stably express 5-HT1A receptor in the CHO-K1 host background. […] In contrast, tryptophan is not known to activate 5-HT1A receptors, and was thus used as a negative control. Cells were maintained in complete growth media as recommended by supplier (GenScript) which is constituted as follows: Ham's F12 Nutrient mix (HAM's F12, GIBCO #11765-047) with 10% fetal bovine serum (FBS) (Thermo Scientific #12483020), 200 μg/ml zeocin (Thermo Scientific #R25005) and/or 100 μg/ml hygromycin (Thermo Scientific #10687010). The cells were cultured in a humidified incubator with 37° C. and 5% CO2. Cells maintenance was carried out as recommended by the cell supplier. Briefly, vials with cells were removed from the liquid nitrogen and thawed quickly in 37° C. water bath. Just before the cells were completely thawed the vial's outside was decontaminated by 70% ethanol spray. The cells suspension was then retrieved from the vial and added to warm (37° C.) complete growth media, and centrifuged at 1,000 rpm for 5 minutes. The supernatant was discarded and the cell pellet was then resuspended in another 10 ml of complete growth media, and added to the 10 cm cell culture dish (Greiner Bio-One #664160). The media was changed every third day until the cells were about 90% confluent. The ˜90% confluent cells were then split 10:1 for maintenance or used for experiment. As 5-HT1AR activation inhibits cAMP formation, the agonist activity of test molecules on 5-HT1AR was measured via the reduction in the levels of cAMP produced due to application of 4 μM forskolin. The change in intracellular cAMP levels due to the treatment of novel molecules was measured using cAMP-Glo Assay kit (Promega #V1501). Briefly, +5-HT1A cells were seeded on 1-6 columns and base −5-HT1A cells were seeded on columns 7-12 of the white walled clear bottom 96-well plate (Corning, #3903). Both cells were seeded at the density of 30,000 cells/well in 100 μl complete growth media and cultured 24 hrs in humidified incubator at 37° C. and 5% CO2. On the experiment day, the media of cells was replaced with serum/antibiotic free culture media. Then the cells were treated for 20 minutes with test molecules dissolved in induction medium (serum/antibiotic free culture media containing 4 μM forskolin, 500 μM IBMX (isobutyl-1-methylxanthine, Sigma-Aldrich, Cat. #17018) and 100 μM (RO 20-1724, Sigma-Aldrich, Cat. #B8279)). Forskolin induced cAMP formation whereas IBMX and RO 20-1724 inhibited the degradation of cAMP. PKA was added to the lysate, mixed, and subsequently the substrate of the PKA was added. PKA was activated by cAMP, and the amount of ATP consumed due to PKA phosphorylation directly corresponded to cAMP levels in the lysate. Reduced ATP caused reduced conversion of luciferin to oxyluciferin, conferring diminished luminescence as the result of 5-HT1A activation.

[2] = target: T2, 5-HT2A receptor (Homo sapiens, UniProt P28223); test: [3H]ketanserin competition binding assay (Scintillation Proximity Assay) with membranes containing 5-HT2A; settings: fixed (1 nM) [3H]ketanserin; FIG. 13C, 13D
T2 construct: purchased PerkinElmer ES-313-M400UA
T2 sequence (P28223 whole entry): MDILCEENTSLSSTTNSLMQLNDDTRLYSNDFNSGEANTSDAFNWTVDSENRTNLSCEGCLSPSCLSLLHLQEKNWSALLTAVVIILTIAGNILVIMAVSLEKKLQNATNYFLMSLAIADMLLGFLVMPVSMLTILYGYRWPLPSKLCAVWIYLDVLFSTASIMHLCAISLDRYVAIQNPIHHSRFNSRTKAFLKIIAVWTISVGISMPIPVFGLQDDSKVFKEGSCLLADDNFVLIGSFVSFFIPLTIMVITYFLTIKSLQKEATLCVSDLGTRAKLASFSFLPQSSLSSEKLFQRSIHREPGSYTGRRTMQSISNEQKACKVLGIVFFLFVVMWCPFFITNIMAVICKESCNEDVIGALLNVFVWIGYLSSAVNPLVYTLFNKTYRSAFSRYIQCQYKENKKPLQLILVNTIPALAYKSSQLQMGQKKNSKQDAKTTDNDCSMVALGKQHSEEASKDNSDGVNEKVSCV
Source text: Evaluation of drug binding is an essential step to characterization of all drug-target interactions (Fang 2012, Exp Opin Drug Discov 7:969). The binding affinity of a drug to a target is traditionally viewed as an acceptable surrogate of its in vivo efficacy (Núñez et al., 2012, Drug Disc Today 17: 10). Competition assays, also called displacement or modulation binding assays, are a common approach to measure activity of a ligand at a target receptor (Flanagan 2016, Methods Cell Biol 132: 191). In these assays, standard radioligands acting either as agonists or antagonists are ascribed to specific receptors. […] After incubation, the samples were read on a MicroBeta 2 Microplate Counter (Perkin Elmer). […] Equilibrium binding constants for ketanserin (Kd) were determined from saturation binding curves using the ‘one-site saturation binding analysis’ method of GraphPad PRISM software (Version 9.2.0). […] Ki values were calculated from the competition displacement data using the competitive binding analysis from GraphPad PRISM software. […] Specific binding in counts per minute (cpm) was calculated by subtracting non-specific binding from total binding. Specific binding (pmol/mg) was calculated from pmol of [^3H]ketanserin bound per mg of protein in the assay. The Kd was calculated by fitting the data with the one-site binding model of PRISM software (version 9.2.0).

| Structure (SMILES) | luminescence (cAMP) in +5HT1A cell culture at various compound concentrations: 5-HT1A activity [1] | relative cAMP levels with increasing compound concentration in +5HT1A and −5HT1A cells [1] | competition binding curve against [3H]ketanserin at the 5-HT2A receptor [2] |
| --- | --- | --- | --- |
| CN(C)CCc1c[nH]c2ccccc12 [DMT] | 5-HT1A activity |  |  |
| CC(=O)NCCc1c[nH]c2c(C)cc(C#N)cc12 [compound (VIII), N-[2-(5-cyano-7-methyl-1H-indol-3-yl)ethyl]acetamide] | 5-HT1A activity | agonist of 5HT1A |  |
| CN(C)CCc1c[nH]c2cccc(O)c12 [psilocin] |  |  | binding |
| NCCc1c[nH]c2ccc(O)cc12 [serotonin] |  | agonist of 5HT1A |  |
| N[C@@H](Cc1c[nH]c2ccccc12)C(=O)O [tryptophan] | lack of 5-HT1A activity |  | no binding |
